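Growth conditions: 96-well plates. Treatment: test compound, 48 hours, 5 concentrations. Analysis: linear interpolation between bracketing concentrations; unreached endpoints set to highest concentration. TGI: concentration producing complete growth inhibition.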
Columns and labels:
Experiment in all cases: DTP human tumour cell line panel, 48 h
SK-MEL-2 melanoma = test system: SK-MEL-2 melanoma
NCI-H23 lung = test system: NCI-H23 lung
MDA-MB-231 breast = test system: MDA-MB-231 breast
SK-MEL-28 melanoma = test system: SK-MEL-28 melanoma
SN12C renal = test system: SN12C renal
SF-539 CNS = test system: SF-539 CNS
A498 renal = test system: A498 renal
DU-145 prostate = test system: DU-145 prostate
SW-620 colon = test system: SW-620 colon
HOP-62 NSCLC = test system: HOP-62 NSCLC
HL-60(TB) leukemia = test system: HL-60(TB) leukemia
HCT-15 colon = test system: HCT-15 colon
M14 melanoma = test system: M14 melanoma
OVCAR-8 ovarian = test system: OVCAR-8 ovarian
HT29 colon = test system: HT29 colon
RXF 393 renal = test system: RXF 393 renal

| SMILES | TGI (SK-MEL-2 melanoma) | TGI (NCI-H23 lung) | TGI (MDA-MB-231 breast) | TGI (SK-MEL-28 melanoma) | TGI (SN12C renal) | TGI (SF-539 CNS) | TGI (A498 renal) | TGI (DU-145 prostate) | TGI (SW-620 colon) | TGI (HOP-62 NSCLC) | TGI (HL-60(TB) leukemia) | TGI (HCT-15 colon) | TGI (M14 melanoma) | TGI (OVCAR-8 ovarian) | TGI (HT29 colon) | TGI (RXF 393 renal) |
| --- | --- | --- | --- | --- | --- | --- | --- | --- | --- | --- | --- | --- | --- | --- | --- | --- |
| Cc1ccc(S(=O)(=O)N(CC(O)COc2ccccc2)c2c(F)c(F)cc(F)c2F)cc1 (configuration not stated) | 31.3 µM | 43.2 µM | 50.8 µM | 36.8 µM | 49.9 µM | 36 µM | 39 µM | > 100 µM | 85 µM | 52.6 µM | 19.7 µM | 52 µM | 61.5 µM | 49.7 µM | 33.4 µM |  |
| [N-]=[N+]=CC(=O)C1(C(=O)C=[N+]=[N-])CC1 | > 100 µM | > 100 µM |  | > 100 µM | > 100 µM | > 100 µM | > 100 µM |  | > 100 µM | > 100 µM | > 100 µM | > 100 µM | > 100 µM | > 100 µM | > 100 µM | > 100 µM |
| NC(Cc1ccc(O)cn1)C(=O)NC(C(=O)O)c1ccccc1 (configuration not stated) |  | > 100 µM | > 100 µM | > 100 µM | > 100 µM | > 100 µM | > 100 µM | > 100 µM | > 100 µM | > 100 µM | > 100 µM | > 100 µM |  | > 100 µM | > 100 µM | > 100 µM |
| COc1cc(C2CC(C)(N3CCOCC3)Oc3cc4c(cc32)OCO4)cc(OC)c1OC (configuration not stated) | > 35.9 µM | > 100 µM | > 100 µM |  | > 100 µM |  |  | > 33.1 µM | > 100 µM | > 100 µM |  | > 100 µM | > 100 µM | > 100 µM |  |  |
| Cc1ccc(S(=O)(=O)NC(=O)Nc2c(S(N)(=O)=O)cc(S(N)(=O)=O)c(Cl)c2Cl)cc1 | > 100 µM | > 100 µM | > 100 µM | > 100 µM | > 100 µM | > 100 µM | > 100 µM |  | > 100 µM |  | > 100 µM | > 100 µM | > 100 µM | > 100 µM | > 100 µM |  |
| CC(=O)O[C@@H]1[C@H](OC2CCCCC2(c2ccccc2)c2ccccc2)O[N+]([O-])=CC12CCCCC2 (some centres not stated) |  | 22.2 µM | 30 µM | 27 µM | 35.4 µM | 37.8 µM | 29.9 µM | 32 µM | 31.6 µM |  | 5.65 µM | 30.7 µM | 33.8 µM | 59.2 µM | 36.2 µM | 32.6 µM |
| CCOC(=O)/C=C/n1c2ccccc2c(=O)c2cc(OC)ccc21 | > 100 µM | > 100 µM |  | > 100 µM | > 100 µM | > 100 µM | > 100 µM |  |  | > 100 µM | > 100 µM | > 100 µM | > 100 µM | > 100 µM | > 100 µM | > 100 µM |
| COC(=O)C(C(=O)C(=O)Nc1ccc(C)cc1)c1nc2ccc([N+](=O)[O-])cc2[nH]c1=O (configuration not stated) | > 100 µM | > 100 µM |  | > 100 µM | > 100 µM | > 100 µM | > 100 µM |  | > 100 µM | > 100 µM | > 100 µM | > 100 µM | > 100 µM | > 100 µM | > 100 µM | > 100 µM |
| CC(=O)Nc1ccc(NC(=O)CC(=O)Nc2ccc(NC(C)=O)cc2)cc1 |  | > 100 µM | > 100 µM | > 100 µM | > 100 µM | > 100 µM | > 100 µM | > 100 µM | > 100 µM |  | > 100 µM | 61.9 µM | > 100 µM | > 100 µM | > 100 µM |  |
| CC(=O)C(N1CCCCC1)C(O)(C(F)(F)F)C(F)(F)F (configuration not stated) |  | > 100 µM | > 100 µM | > 100 µM |  | > 100 µM | > 100 µM | > 100 µM | > 100 µM |  | > 100 µM | > 100 µM | > 100 µM | > 100 µM | > 100 µM | > 100 µM |
| CN1C(=O)c2ccccc2C(O)(c2ccccc2)C1(O)c1ccccc1 (configuration not stated) | > 100 µM | > 100 µM | > 100 µM | > 100 µM | > 100 µM | > 100 µM | > 100 µM |  | > 100 µM | > 100 µM |  | > 100 µM | > 100 µM | > 100 µM | > 100 µM | > 100 µM |
| O=C1c2ccccc2N=C(c2cc3c(cc2Cl)Sc2nccn2S3(=O)=O)OS(=O)(=O)N1c1ccccc1 |  | 66.2 µM | 56.2 µM |  | > 100 µM | > 100 µM | > 100 µM | > 100 µM | > 100 µM | 76.2 µM | 60.7 µM | 50.8 µM | 47.5 µM | 44.5 µM | 61 µM | 84.7 µM |
| O=[N+]([O-])c1cc(Br)cc2cc(Cl)cnc12 |  | > 100 µM | > 100 µM | > 100 µM | > 100 µM | > 100 µM | > 100 µM | > 100 µM | 32.8 µM | > 100 µM | > 100 µM | > 100 µM | > 100 µM | > 100 µM | > 100 µM | > 100 µM |
| Cc1sc2c(c1C)C(=O)c1cccn1-2 | > 100 µM |  | > 100 µM | > 100 µM | > 100 µM |  | > 100 µM | > 100 µM | > 100 µM | > 100 µM |  | > 100 µM | > 100 µM | > 100 µM | > 100 µM | > 100 µM |
| CCCCn1c(-c2ccccc2)cs/c1=N\N=C1C=C(C(C)(C)C)C(=O)C(C(C)(C)C)=C1 | > 100 µM | > 100 µM |  |  | > 100 µM | > 100 µM | > 100 µM |  | > 100 µM | > 100 µM | > 100 µM | > 100 µM | > 100 µM | > 100 µM | > 100 µM | > 100 µM |
| C=CCn1c(-c2cc(C(C)(C)C)c(O)c(C(C)(C)C)c2)cs/c1=N\C(P(=O)(O)O)P(=O)(O)O | > 100 µM | > 100 µM | > 100 µM | > 100 µM | > 100 µM | > 100 µM | > 100 µM | > 100 µM | > 100 µM | > 100 µM | > 100 µM | > 100 µM | > 100 µM | > 100 µM | > 100 µM |  |
